According to patent US20220281821A1, “INDAZOLE COMPOUNDS AND THEIR PHARMACEUTICAL COMPOSITIONS” (Jinan University, priority 2019, published 2022):

Columns and labels:
Format in all cases: cell-based, mouse
BaF3-CD74-NTRK1 = target: T1, BaF3-CD74-NTRK1 (Homo sapiens, UniProt P04629); test: Cell proliferation inhibition (CCK-8), BaF3-CD74-NTRK1 stable strain; details: BaF3-CD74-NTRK1, 72 hours
T1 construct: fused on or other part: P04233 (HLA class II histocompatibility antigen gamma chain)
Description: (§1) The brief steps of stable strain construction are as follows: construct a pCDNA3.1(+) plasmid vector carrying genes such as CD74-NTRK1, ETV6-NTRK2 and ETV6-NTRK3; the plasmid was electroporated into Ba/F3 cells using the Amaxa® Cell Line Nucleofector® Kit V; 48 hours after electroporated, G418 with a final concentration of 1000 μg/ml was added for screening for two weeks, and then IL3 was removed, and continued screening to obtain polyclonal stable strains; then single clones were selected by a limiting dilution method. The stable strains were then identified using positive drugs, WB and gene sequencing; and the monoclonal clones that were identified as completely correct may be used for the study of cell proliferation inhibitory activity of inhibitors.
(§2) Cell proliferation inhibition activity study: the cells in the logarithmic growth phase were seeded into 96-well plates at 8000-12000 cells/well, and inhibitors at different concentrations (0-10 μM) were added the next day, and incubation was continued for 72 hours; then 10 μL of CCK-8 reagent was added to each well, and the incubation was continued for 1-3 hours; and then use a super microplate reader to measure their absorbance values at 450 nm and 650 nm. The half-inhibition concentration (IC50) was calculated using GraphPad Prism 8.0.0.

BaF3-ETV6-NTRK2 = target: T2, BaF3-ETV6-NTRK2 (Homo sapiens, UniProt Q16620); test: Cell proliferation inhibition (CCK-8), BaF3-ETV6-NTRK2 stable strain; details: BaF3-ETV6-NTRK2, 72 hours
T2 construct: fused on or other part: P41212 (Transcription factor ETV6)
Description: as §1, §2

BaF3-ETV6-NTRK3 = target: T3, BaF3-ETV6-NTRK3 (Homo sapiens, UniProt Q16288); test: Cell proliferation inhibition (CCK-8), BaF3-ETV6-NTRK3 stable strain; details: BaF3-ETV6-NTRK3, 72 hours
T3 construct: fused on or other part: P41212 (Transcription factor ETV6)
Description: as §1, §2

T2 sequence (Q16620 538-822 limits assumed): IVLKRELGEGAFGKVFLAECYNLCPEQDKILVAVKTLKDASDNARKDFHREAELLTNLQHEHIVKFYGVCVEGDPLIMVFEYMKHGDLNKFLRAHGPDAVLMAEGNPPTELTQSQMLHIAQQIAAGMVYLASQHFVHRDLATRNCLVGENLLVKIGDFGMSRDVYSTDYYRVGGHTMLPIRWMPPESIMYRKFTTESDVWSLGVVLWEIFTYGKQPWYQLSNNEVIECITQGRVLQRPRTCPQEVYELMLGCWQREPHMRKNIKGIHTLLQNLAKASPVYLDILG
T1 sequence (P04629 510-796 limits assumed): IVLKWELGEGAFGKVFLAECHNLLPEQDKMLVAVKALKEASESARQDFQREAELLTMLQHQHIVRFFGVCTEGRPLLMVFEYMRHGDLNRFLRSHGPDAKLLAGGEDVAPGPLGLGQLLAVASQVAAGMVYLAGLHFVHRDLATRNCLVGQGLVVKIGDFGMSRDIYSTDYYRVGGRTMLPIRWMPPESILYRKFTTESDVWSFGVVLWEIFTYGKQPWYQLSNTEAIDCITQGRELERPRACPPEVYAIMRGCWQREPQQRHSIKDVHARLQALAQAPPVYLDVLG
T3 sequence (Q16288 whole entry, the tested form may be a part): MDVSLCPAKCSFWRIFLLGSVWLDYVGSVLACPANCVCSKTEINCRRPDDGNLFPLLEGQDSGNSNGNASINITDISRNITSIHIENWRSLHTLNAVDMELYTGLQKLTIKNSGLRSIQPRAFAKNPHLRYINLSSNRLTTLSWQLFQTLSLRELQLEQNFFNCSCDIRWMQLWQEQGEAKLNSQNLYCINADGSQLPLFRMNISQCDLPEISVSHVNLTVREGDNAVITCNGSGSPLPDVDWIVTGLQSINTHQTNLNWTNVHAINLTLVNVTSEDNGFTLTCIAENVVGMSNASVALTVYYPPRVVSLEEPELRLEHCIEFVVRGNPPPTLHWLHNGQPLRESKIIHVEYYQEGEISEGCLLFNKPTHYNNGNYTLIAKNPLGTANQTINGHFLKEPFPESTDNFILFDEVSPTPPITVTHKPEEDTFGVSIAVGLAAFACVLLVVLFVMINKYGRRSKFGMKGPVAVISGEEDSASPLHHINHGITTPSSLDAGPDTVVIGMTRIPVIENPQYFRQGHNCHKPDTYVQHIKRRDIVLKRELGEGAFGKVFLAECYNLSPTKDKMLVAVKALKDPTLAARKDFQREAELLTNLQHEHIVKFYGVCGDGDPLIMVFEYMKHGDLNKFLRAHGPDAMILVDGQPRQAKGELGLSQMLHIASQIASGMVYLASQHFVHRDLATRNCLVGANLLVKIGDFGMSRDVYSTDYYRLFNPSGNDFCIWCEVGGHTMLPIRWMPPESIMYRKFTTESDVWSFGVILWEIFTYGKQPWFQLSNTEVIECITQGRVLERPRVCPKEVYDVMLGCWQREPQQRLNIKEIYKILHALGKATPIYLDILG

Compound	IC50 (BaF3-CD74-NTRK1)	IC50 (BaF3-ETV6-NTRK2)	IC50 (BaF3-ETV6-NTRK3)
N#CCn1cc(/C=C/c2n[nH]c3ccc(NS(=O)(=O)c4cc(F)cc(F)c4)cc23)cn1 [CHW-1, (E)-N-(3-(2-(1-(cyanomethyl)-1H-pyrazol-4-yl)vinyl)-1H-indazol-5-yl)-3,5-difluorobenzene sulfonamide]	35.5 nM	43.1 nM	39.2 nM
CC(=O)n1cc(/C=C/c2n[nH]c3ccc(NS(=O)(=O)c4cc(F)cc(F)c4)cc23)cn1 [CHW-2, (E)-N-(3-(2-(1-acetyl-1H-pyrazol-4-yl)vinyl)-1H-indazol-5-yl)-3,5-difluorobenzenesulfonamide]	107 nM	185 nM	127 nM
O=S(=O)(Nc1ccc2[nH]nc(/C=C/c3cnn(CC(F)(F)F)c3)c2c1)c1cc(F)cc(F)c1 [CHW-3]	92 nM	165 nM	123 nM
O=S(=O)(Nc1ccc2[nH]nc(/C=C/c3cnn(C4CC4)c3)c2c1)c1cc(F)cc(F)c1 [CHW-4]	3.1 nM	8.2 nM	7 nM
O=S(=O)(Nc1ccc2[nH]nc(/C=C/c3ccccn3)c2c1)c1cccc(F)c1 [CHW-5, (E)-3-fluoro-N-(3-(2-(pyridin-2-yl)vinyl)-1H-indazol-5-yl)benzene sulfonamide]	27.3 nM	70.1 nM	59.5 nM
O=S(=O)(Nc1ccc2[nH]nc(/C=C/c3cnn(CC(F)F)c3)c2c1)c1cc(F)cc(F)c1 [CHW-6]	23 nM	60.1 nM	53.5 nM
CC(C)n1cc(/C=C/c2n[nH]c3ccc(NS(=O)(=O)c4cc(F)cc(F)c4)cc23)cn1 [CHW-7, (E)-3,5-difluoro-N-(3-(2-(1-isopropyl-1H-pyrazol-4-yl)vinyl)-1H-indazol-5-yl)benzenesulfonamide]	33.4 nM	57.8 nM	40.9 nM
O=S(=O)(Nc1ccc2[nH]nc(/C=C/c3cccnc3)c2c1)c1cc(F)cc(F)c1 [CHW-8, (E)-3,5-difluoro-N-(3-(2-(pyridin-3-yl)vinyl)-1H-indazol-5-yl)benzenesulfonamide]	143 nM	248 nM	174 nM
O=S(=O)(Nc1ccc2[nH]nc(/C=C/c3ccccn3)c2c1)c1cncc(F)c1 [CHW-9, (E)-5-fluoro-N-(3-(2-(pyridin-2-yl)vinyl)-1H-indazol-5-yl)pyridine-3-sulfonamide]	60.8 nM	134 nM	121 nM
CN(C)C(=O)Cn1cc(/C=C/c2n[nH]c3ccc(NS(=O)(=O)c4cc(F)cc(F)c4)cc23)cn1 [CHW-10, (E)-2-(4-(2-(5-((3,5-difluorophenyl)sulfonamido)-1H-indazol-3-yl)vinyl)-1H-pyrazol-1-yl)-N,N-dimethylacetamide]	274 nM	439 nM	390 nM
O=S(=O)(Nc1ccc2[nH]nc(/C=C/c3cnn(C(F)F)c3)c2c1)c1cc(F)cc(F)c1 [CHW-11]	53.8 nM	103 nM	111 nM
CC(C)OCCn1cc(/C=C/c2n[nH]c3ccc(NS(=O)(=O)c4cc(F)cc(F)c4)cc23)cn1 [CHW-12]	33.8 nM	55.8 nM	48.1 nM
COCCn1cc(/C=C/c2n[nH]c3ccc(NS(=O)(=O)c4cc(F)cc(F)c4)cc23)cn1 [CHW-13]	40.2 nM	52.3 nM	41.3 nM
CNC(=O)Cn1cc(/C=C/c2n[nH]c3ccc(NS(=O)(=O)c4cc(F)cc(F)c4)cc23)cn1 [CHW-14, (E)-2-(4-(2-(5-((3,5-difluorophenyl)sulfonamido)-1H-indazol-3-yl)vinyl)-1H-pyrazol-1-yl)-N-methylacetamide]	331 nM	427 nM	350 nM
N#Cc1cccc(Cc2ccc3[nH]nc(C#Cc4ccccn4)c3c2)c1 [DYX-136Q, 3-((3-(pyridin-2-ylethynyl)-1H-indazol-5-yl)methyl)benzonitrile]	4600 nM	3100 nM	2090 nM
FC(F)(F)c1cccc(Cc2ccc3[nH]nc(C#Cc4ccccn4)c3c2)c1 [DYX-138Q]	> 10000 nM	> 10000 nM	> 10000 nM

The next lines start with the values.

IC50 (BaF3-CD74-NTRK1)	IC50 (BaF3-ETV6-NTRK2)	IC50 (BaF3-ETV6-NTRK3)	Compound
21.2 nM	31.7 nM	22.6 nM	CN(C)C(=O)/C=C/c1n[nH]c2ccc(NCc3cc(F)cc(F)c3)cc12 [DYX-220, (E)-3-(5-((3,5-difluorobenzyl)amino)-1H-indazol-3-yl)-N,N-dimethylacrylamide]
37.3 nM	54.7 nM	41.5 nM	O=C(/C=C/c1n[nH]c2ccc(NCc3cc(F)cc(F)c3)cc12)N1CCOCC1 [DYX-222, (E)-3-(5-((3,5-difluorobenzyl)amino)-1H-indazol-3-yl)-1-morpholinoprop-2-en-1-one]
37.7 nM	24.3 nM	35.6 nM	NC(=O)/C=C/c1n[nH]c2ccc(NCc3cc(F)cc(F)c3)cc12 [DYX-223, (E)-3-(5-((3,5-difluorobenzyl)amino)-1H-indazol-3-yl)acrylamide]
48.7 nM	48.1 nM	34.4 nM	CN1CCN(C(=O)/C=C/c2n[nH]c3ccc(NCc4cc(F)cc(F)c4)cc23)CC1 [DYX-226, (E)-3-(5-((3,5-difluorobenzyl)amino)-1H-indazol-3-yl)-1-(4-methylpiperazin-1-yl)prop-2-en-1-one]
37.5 nM	56 nM	33.2 nM	O=C(/C=C/c1n[nH]c2ccc(NCc3cc(F)cc(F)c3)cc12)N1CC[C@@H](O)C1 [DYX-227, (R,E)-3-(5-((3,5-difluorobenzyl)amino)-1H-indazol-3-yl)-1-(3-hydroxylpyrrolidin-1-yl)prop-2-en-1-one]
11.9 nM	20.5 nM	11.6 nM	O=C(/C=C/c1n[nH]c2ccc(NCc3cc(F)cc(F)c3)cc12)N1CC[C@H](O)C1 [DYX-228, (S,E)-3-(5-((3,5-difluorobenzyl)amino)-1H-indazol-3-yl)-1-(3-hydroxylpyrrolidin-1-yl)prop-2-en-1-one]
682 nM	303 nM	359 nM	CC(C)(C)NC(=O)/C=C/c1n[nH]c2ccc(NCc3cc(F)cc(F)c3)cc12 [DYX-230, (E)-N-tert-butyl-3-(5-((3,5-difluorobenzyl)amino)-1H-indazol-3-yl)acrylamide]
619 nM	780 nM	547 nM	CC(C)NC(=O)/C=C/c1n[nH]c2ccc(NCc3cc(F)cc(F)c3)cc12 [DYX-231, (E)-3-(5-((3,5-difluorobenzyl)amino)-1H-indazol-3-yl)-N-isopropylacrylamide]
20 nM	32.6 nM	34.2 nM	CNC(=O)/C=C/c1n[nH]c2ccc(NCc3cc(F)cc(F)c3)cc12 [DYX-235, (E)-3-(5-((3,5-difluorobenzyl)amino)-1H-indazol-3-yl)-N-methylacrylamide]
112 nM	116 nM	196 nM	CCNC(=O)/C=C/c1n[nH]c2ccc(NCc3cc(F)cc(F)c3)cc12 [DYX-236, (E)-3-(5-((3,5-difluorobenzyl)amino)-1H-indazol-3-yl)-N-ethylacrylamide]
154 nM	165 nM	149 nM	C(=C\c1n[nH]c2ccc(NCc3ccccc3)cc12)/c1ccccn1 [DYX-314, (E)-N-benzyl-3-(2-(pyridin-2-yl)vinyl)-1H-indazol-5-amine]
37.6 nM	32.4 nM	10.4 nM	C[C@@H](Nc1ccc2[nH]nc(/C=C/c3ccccn3)c2c1)c1cccc(F)c1 [DYX-320, (R,E)-N-(1-(3-fluorophenyl)ethyl)-3-(2-(pyridin-2-yl)vinyl)-1H-indazol-5-amine]
1.4 nM	17.6 nM	5.4 nM	C[C@@H](Nc1ccc2[nH]nc(/C=C/c3cnn(CCO)c3)c2c1)c1cc(F)cc(F)c1 [DYX-327, (R,E)-2-(4-(2-(5-((1-(3,5-difluorophenyl)ethyl)amino)-1H-indazol-3-yl)vinyl)-1H-pyrazol-1-yl)-1-ethanol]
9.9 nM	146 nM	46.5 nM	C[C@@H](Nc1ccc2[nH]nc(/C=C/c3ccccn3)c2n1)c1cc(F)cc(F)c1 [DYX-332, (R,E)-N-(1-(3,5-difluorophenyl)ethyl)-3-(2-(pyridin-2-yl)vinyl)-1H-pyrazolo[4,3-b]pyridin-5-amine]
0.6 nM	10.7 nM	3.3 nM	C[C@@H](Nc1ccc2[nH]nc(/C=C/c3cnn(CCO)c3)c2c1)c1cccc(F)c1 [DYX-335, (R,E)-2-(4-(2-(5-((1-(3-fluorophenyl)ethyl)amino)-1H-indazol-3-yl)vinyl)-1H-pyrazol-1-yl)-1-ethanol]
18.7 nM	160 nM	68 nM	C[C@@H](Nc1cc2c(/C=C/c3ccccn3)n[nH]c2cn1)c1cc(F)cc(F)c1 [DYX-340, (R,E)-N-(1-(3,5-difluorophenyl)ethyl)-3-(2-(pyridin-2-yl)vinyl)-1H-pyrazolo[3,4-c]pyridin-5-amine]
